Results as given in patent US11414379B2, “SPAK kinase inhibitors as neuroprotective agents” (United States Government as represented by the Department …, priority 2018, dated 2022).

Key:
pNKCC1 = experiment: IVH-induced phosphorylation in rat choroid plexus, ICV delivery; type: in vivo; details: 48 hrs post-IVH, n=3
pSPAK = experiment: as above; type: in vivo; details: 48 hrs post-IVH, n=3
[1] = tested on: KCC2 double mutant Thr906A1a/Thr1007Ala; experiment: 86Rb+ uptake assay in HEK293 cells; type: cell-based, human; details: n=3, p>0.05
Method: (§1) HEK293 cells were plated at 50-60% confluence of in 12-well plates (2.4-cm-diameter per/well) and transfected with wild-type or various mutant forms of full-length flag-tagged human KCCs. Each well of HEK293 cells was transfected with 2.5 μL of 1 mg/mL polyethylenimine and 1 μg of plasmid DNA. The ^86Rb^+-uptake assay was performed on cells at 36 hours post-transfection. Culture medium was aspirated from the wells and replaced with either isotonic or hypotonic medium for 15 min at 37° C., then for a further 15 min with stimulating medium containing additional 1 mM ouabain and 0.1 mM bumetanide, to prevent ^86Rb^+ uptake via the NKCC1 cotransporter. This stimulating medium was then removed and replaced with isotonic medium plus inhibitors containing 2 μCi/mL ^86Rb^+ for 10 min at 37° C., following which cells were rapidly washed three times with the respective ice-cold non-radioactive medium. The cells were lysed in 300 μL of ice-cold lysis buffer and ^86Rb^+ uptake was quantitated by liquid scintillation counting (PerkinElmer).
(§2) Referring to FIG. 8, ^86Rb^+ uptake assays in the presence of ZT-1a is shown. […] 10 min ^86Rb^+ uptake values were quantified by scintillation counting, normalized per mg protein for each condition and plotted for both isotonic and hypotonic conditions. Statistical significance was determined at p<0.05 (both panels).

wild type KCC2 = experiment: 86Rb+ uptake assay in HEK293 cells; type: cell-based, human; details: n=3
Method: as §1, §2

[2] = tested on: Ang II-mediated hypertensive mice, pdMCAO; experiment: Neurological function tests in HTN mice after pdMCAO; type: in vivo, mouse; details: male HTN mice; 1-14 days post-pdMCAO
Method: Foot fault, cylinder test, and adhesive tape removal tests were used to assess pdMCAO-induced somatosensory and motor deficits in HTN mice in a blinded manner as described previously (Bhuiyan et al. (2017)J Cereb Blood Flow Metab. 37:2780-2794; Begum et al. (2018) Glia. 66).
Cylinder test: Mice are placed in a transparent cylinder (9 cm in diameter and 15 cm in height) for 10 min and all the forelimb movements of the mice will be recorded. Forepaw (left/right/both) usage on initial contact against the cylinder wall after rearing and during lateral exploration will be recorded. Prior to ischemic stroke, animals were placed in the cylinder for 5 min to establish a baseline symmetry profile.
Foot fault test: Each mouse will be placed on a stainless-steel grid floor (20 cm×40 cm with a mesh size of 4 cm^2) elevated 1 m above the floor. […] Data will be expressed as the number of foot fault errors made by the forelimbs contralateral to the injury hemisphere as a percentage of total steps.
Adhesive contact and removal tests: A piece of adhesive tape (4 mm×3 mm) will be attached to the contralateral forepaw with equal pressure by the experimenter in each trial. The time to make first contact with the tape and the time to remove the tape will be recorded as the contact time and the removal time, respectively. […]

For `Cc1cc(C(C#N)c2ccc(Cl)cc2)c(Cl)cc1NC(=O)c1cc(Cl)ccc1O` (centres unmarked) [ZT-1a, 5-chloro-N-(5-chloro-4-((4-chlorophenyl)(cyano)methyl)-2-methylphenyl)-2-hydroxy-benzamide], the “reduction of IVH-induced expression of pNKCC1” value (pNKCC1) was 69±4.3%, the “reduction of IVH-induced expression of pSPAK” value (pSPAK) was 55±3.6% and the “increase of activity of KCC2 double mutant (86Rb+ uptake)” value [1] was 7±2%. For the same compound, the “activation of WT KCC2 (86Rb+ uptake)” value (wild type KCC2) was greater than 2.6 fold and the “foot fault, cylinder and adhesive tape removal tests” value [2] was “less foot faults, less unilateral turns and better performance in adhesive tape removal”.
